This note sets out measurements from patent US20250215030A1, “STAT MODULATORS AND USES THEREOF” (Recludix Pharma, Inc., priority 2022, published 2025).

The assay has as its target T1, pSTAT3 (pY705-STAT3) (Homo sapiens, UniProt P40763).
T1 construct: host or cells: cryopreserved PBMC
The experiment in a line: MSD-pSTAT-PBMC Assay (pSTAT3, IL-6 stimulated). Type of assay: cell-based. The text has this:
Cryopreserved Peripheral Blood Mononuclear Cells (PBMC) are from AllCells. Recombinant Human IL-4 and IL-6 are from Peprotech. Mouse monoclonal anti-STAT3 antibody, rabbit monoclonal anti-pY705-STAT3 antibody, rabbit monoclonal Anti-pY641-STAT6 antibody, and lysis buffer are from Cell Signaling Technology (CST). Mouse monoclonal anti-STAT6 antibody is from BioLegend. Assay plates, blocker, and anti-rabbit secondary antibody are from Meso Scale Discovery (MSD).
Cryopreserved PBMCs were thawed out and allowed to recover overnight in IMDM+10% heat-inactivated FBS prior to plating 50,000 (STAT3) or 25,000 (STAT6) cells per well in 96-well U-bottom tissue culture plates. Cells were treated with compound for 3 hrs, then stimulated with 10 ng/mL IL-6 (STAT3) or 1 ng/mL IL-4 (STAT6) for 10 min. Cells were then spun down and washed with ice-cold PBS prior to lysing the cell pellet with 1× lysis buffer (CST) with 1× HALT protease and phosphatase inhibitor cocktail (Thermo). Lysates were transferred to and incubated overnight at 4° C. with shaking in QuickPlex 96-well high bind assay plates (MSD) pre-coated overnight with 30 μL per well of 0.6 μg/mL mouse monoclonal anti-STAT3 antibody (STAT3) or 2 μg/mL mouse monoclonal anti-STAT6 antibody (STAT6) in 1×PBS, and pre-blocked for 1 hour with 3% Blocker-A (MSD). Captured protein in the assay plates were then washed and probed with 25 μL per well of 0.25 μg/ml rabbit monoclonal anti-pY705-STAT3 antibody (STAT3) or 0.18 μg/ml rabbit monoclonal Anti-pY641-STAT6 antibody (STAT6) in 1% Blocker-A for 1 hour at room temperature with shaking, then washed and probed with 25 ul per well of 1 ug/mi Sulfo-TAG Labeled Goat Anti-Rabbit Antibody (MSD) in 1% Blocker-A for 1 hour at room temperature with shaking. Assay plates were then washed and 150 μL of 1× Read Buffer-T (MSD) was added to each well prior to reading on an SQ120 MSD Plate Reader. Assay signal from each sample was subtracted by the signal from unstimulated control wells and normalized to DMSO control wells. IC50 values were calculated using Graph Pad Prism Dose-Response Nonlinear Regression with variable slope. For both pSTAT3 and pSTAT6 A=≤100 nM; B=>100-1000 nM; C=>1000-3000 nM; and D=>3 μM.

The mark [1] stands for this setting: PBMC, compound 3 hrs, then 10 ng/mL IL-6 for 10 min, MSD pY705-STAT3, read-out: pSTAT3.

pIC50: −log10 of the molar value. Read-outs that look alike come from different tables or passages of the source.

T1 sequence (P40763 whole entry): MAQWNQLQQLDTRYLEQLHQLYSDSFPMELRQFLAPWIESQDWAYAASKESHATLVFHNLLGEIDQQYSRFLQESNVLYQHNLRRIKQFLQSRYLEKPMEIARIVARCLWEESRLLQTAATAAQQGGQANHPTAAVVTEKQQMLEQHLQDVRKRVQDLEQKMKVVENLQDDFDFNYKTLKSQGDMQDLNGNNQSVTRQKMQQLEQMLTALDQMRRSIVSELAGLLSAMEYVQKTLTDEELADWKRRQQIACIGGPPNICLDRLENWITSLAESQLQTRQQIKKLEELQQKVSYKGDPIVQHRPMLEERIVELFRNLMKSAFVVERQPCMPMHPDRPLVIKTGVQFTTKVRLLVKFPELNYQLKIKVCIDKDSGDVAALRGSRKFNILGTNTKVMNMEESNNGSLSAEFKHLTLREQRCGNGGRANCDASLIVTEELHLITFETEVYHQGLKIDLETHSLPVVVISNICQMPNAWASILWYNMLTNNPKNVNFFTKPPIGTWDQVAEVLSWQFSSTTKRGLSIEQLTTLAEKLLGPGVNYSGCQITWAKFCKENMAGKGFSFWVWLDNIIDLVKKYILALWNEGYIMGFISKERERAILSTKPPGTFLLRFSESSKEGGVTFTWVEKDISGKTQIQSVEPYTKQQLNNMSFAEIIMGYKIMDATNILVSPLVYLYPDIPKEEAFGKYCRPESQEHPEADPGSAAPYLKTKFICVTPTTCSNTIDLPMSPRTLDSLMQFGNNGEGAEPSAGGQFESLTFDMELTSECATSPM

Take `CC(C)(CO)C(=O)OCOP(=O)(OCOC(=O)C(C)(C)CO)C(F)(F)c1ccc2sc(C(=O)N[C@H]3C[C@@H]4C[C@@H]4C[C@H]4CC[C@@H](C(=O)N5CC(C(=O)N6CCOCC6)C5)N4C3=O)cc2c1` [Compound 132, (((difluoro(2-(((3S,6S,7aS, 8aR,9aR)-3-(3-(morpholine-4-carbonyl)azetidine-1-carbonyl)-5-oxodecahydro-1H-cyclopropa[d]pyrrolo[1,2-a]azocin-6-yl)carbamoyl)benzo[b]thiophen-5-yl)methyl)phosphoryl)bis(oxy)) bis(methylene) bis(3-hydroxy-2,2-dimethyl-propanoate)]: the pIC50 under setting [1] is under 5.52. The same measure, in the same setting: the same measure for `CC(C)OC(=O)[C@H](Cc1ccccc1)NP(=O)(Cc1ccc2sc(C(=O)N[C@H]3C[C@@H]4C[C@@H]4C[C@H]4CC[C@@H](C(=O)N5CC(C(=O)N6CCOCC6)C5)N4C3=O)cc2c1)Oc1ccccc1` (stereo partly drawn) [Compound 134, isopropyl (((2-(((3S,6S,7aS, 8aR,9aR)-3-(3-(morpholine-4-carbonyl)azetidine-1-carbonyl)-5-oxodecahydro-1H-cyclopropa[d]pyrrolo[1,2-a]azocin-6-yl)carbamoyl)benzo[b]thiophen-5-yl)methyl) (phenoxy)phosphoryl)-L-phenyl-alaninate]: 6.00 to 7.00; for `CC(C)OC(=O)[C@H](C)NP(=O)(Cc1ccc2sc(C(=O)N[C@H]3C[C@@H]4C[C@@H]4C[C@H]4CC[C@@H](C(=O)N5CC(C(=O)N6CCOCC6)C5)N4C3=O)cc2c1)N[C@@H](C)C(=O)OC(C)C` [Compound 147, diisopropyl 2,2′-((((2-(((3S,6S,7aS, 8aR,9aR)-3-(3-(morpholine-4-carbonyl)azetidine-1-carbonyl)-5-oxodecahydro-1H-cyclopropa[d]pyrrolo[1,2-a]azocin-6-yl)carbamoyl)benzo[b]thiophen-5-yl)methyl)phosphoryl)bis(azanediyl)) (2S,2′S)-dipropionate]: under 5.52. Consider `CC(C)OC(=O)[C@H](C)NP(=O)(Oc1ccccc1)C(F)c1ccc2sc(C(=O)N[C@H]3C[C@@H]4C[C@@H]4C[C@H]4CC[C@@H](C(=O)N5CC(C(=O)N6CCOCC6)C5)N4C3=O)cc2c1` (stereo partly drawn) [Compound 153, isopropyl ((fluoro(2-(((3S,6S,7aS, 8aR,9aR)-3-(3-(morpholine-4-carbonyl)azetidine-1-carbonyl)-5-oxodecahydro-1H-cyclopropa[d]pyrrolo[1,2-a]azocin-6-yl)carbamoyl)benzo[b]thiophen-5-yl)methyl)phenoxy) phosphoryl)-L-alaninate], for which, under setting [1], the pIC50 is 6.00 to 7.00. As to `O=C(N[C@H]1C[C@@H]2C[C@@H]2C[C@H]2CC[C@@H](C(=O)N3CC(C(=O)N4CCOCC4)C3)N2C1=O)c1cc2cc(C(F)(F)P(=O)(N[C@@H](CCc3ccccc3)C(=O)OCc3ccccc3)Oc3ccccc3)ccc2s1` (stereo partly drawn) [Compound 159, benzyl (2S)-2-(((difluoro(2-(((3S,6S,7aS, 8aR,9aR)-3-(3-(morpholine-4-carbonyl)azetidine-1-carbonyl)-5-oxodecahydro-1H-cyclopropa[d]pyrrolo[1,2-a]azocin-6-yl)carbamoyl)benzo[b]thiophen-5-yl)methyl) (phenoxy)phosphoryl)amino)-4-phenylbutanoate], the pIC50 was under 5.52. Turning to `CCOC(=O)[C@H](C)NC(=O)OCOP(=O)(Cc1ccc2sc(C(=O)N[C@H]3C[C@@H]4C[C@@H]4C[C@H]4CC[C@@H](C(=O)N5CC(C(=O)N6CCOCC6)C5)N4C3=O)cc2c1)OCOC(=O)N[C@@H](C)C(=O)OCC` [Compound 160, diethyl 2,2′-((((((((2-(((3S, 6S,7aS,8aR, 9aR)-3-(3-(morpholine-4-carbonyl)azetidine-1-carbonyl)-5-oxodecahydro-1H-cyclopropa [d]pyrrolo[1,2-a]azocin-6-yl)carbamoyl)benzo[b]thiophen-5-yl)methyl)phosphoryl)bis(oxy))bis(methylene))bis(oxy))bis(carbonate))bis(azanediyl)) (2S,2′S)-dipropionate], the pIC50 under setting [1] is under 5.52. Still for that read-out and setting: in the case of `CC(C)C[C@H](NP(=O)(Oc1ccccc1)C(F)(F)c1ccc2sc(C(=O)N[C@H]3C[C@@H]4C[C@@H]4C[C@H]4CC[C@@H](C(=O)N5CC(C(=O)N6CCOCC6)C5)N4C3=O)cc2c1)C(=O)OCc1ccccc1` (stereo partly drawn) [Compound 163, benzyl ((difluoro(2-(((3S,6S,7aS, 8aR,9aR)-3-(3-(morpholine-4-carbonyl)azetidine-1-carbonyl)-5-oxodecahydro-1H-cyclopropa[d]pyrrolo[1,2-a]azocin-6-yl)carbamoyl)benzo[b]thiophen-5-yl)methyl) (phenoxy)phosphoryl)-L-leucinate] it was 5.52 to 6.00. Regarding `CC(C)CC(=O)SCCOP(=O)(N[C@@H](C)C(=O)OCc1ccccc1)C(F)(F)c1ccc2sc(C(=O)N[C@H]3C[C@@H]4C[C@@H]4C[C@H]4CC[C@@H](C(=O)N5CC(C(=O)N6CCOCC6)C5)N4C3=O)cc2c1` (stereo partly drawn) [Compound 164, benzyl ((difluoro(2-(((3S,6S,7aS, 8aR,9aR)-3-(3-(morpholine-4-carbonyl)azetidine-1-carbonyl)-5-oxodecahydro-1H-cyclopropa [d]pyrrolo[1,2-a]azocin-6-yl)carbamoyl)benzo[b]thiophen-5-yl)methyl)(2-((3-methyl-butanoyl)thio)ethoxy)phosphoryl)-L-alaninate], the pIC50 under setting [1] is under 5.52. `CC(C)OC(=O)[C@H](Cc1ccccc1)OP(=O)(Oc1ccccc1)C(F)(F)c1ccc2sc(C(=O)N[C@H]3C[C@@H]4C[C@@H]4C[C@H]4CC[C@@H](C(=O)N5CC(C(=O)N6CCOCC6)C5)N4C3=O)cc2c1` (stereo partly drawn) [Compound 167, isopropyl (2S)-2-(((difluoro(2-(((3S,6S,7aS, 8aR,9aR)-3-(3-(morpholine-4-carbonyl)azetidine-1-carbonyl)-5-oxodecahydro-1H-cyclopropa[d]pyrrolo[1,2-a]azocin-6-yl)carbamoyl)benzo[b]thiophen-5-yl)methyl) (phenoxy)phosphoryl)oxy)-3-phenyl-propanoate]: the pIC50 under setting [1] is under 5.52. On the same count and under the same terms, in the case of `C[C@H](OP(=O)(Oc1ccccc1)C(F)(F)c1ccc2sc(C(=O)N[C@H]3C[C@@H]4C[C@@H]4C[C@H]4CC[C@@H](C(=O)N5CC(C(=O)N6CCOCC6)C5)N4C3=O)cc2c1)C(=O)OCc1ccccc1` (stereo partly drawn) [Compound 174, benzyl (2S)-2-(((difluoro(2-(((3S,6S,7aS, 8aR,9aR)-3-(3-(morpholine-4-carbonyl)azetidine-1-carbonyl)-5-oxodecahydro-1H-cyclopropa[d]pyrrolo[1,2-a]azocin-6-yl)carbamoyl)benzo[b]thiophen-5-yl)methyl) (phenoxy)phosphoryl)oxy) propanoate] it was 5.52 to 6.00. Same read-out and setting: the same measure for `CC(C)OC(=O)[C@H](C)NP(=O)(Cc1ccc2sc(C(=O)N[C@H]3C[C@@H]4C[C@@H]4C[C@H]4CC[C@@H](C(=O)N5CC(C(=O)N6CCOCC6)C5)N4C3=O)cc2c1)Oc1ccccc1Cl` (stereo partly drawn) [Compound 191, isopropyl ((2-chlorophenoxy) ((2-(((3S,6S, 7aS,8aR,9aR)-3-(3-(morpholine-4-carbonyl)azetidine-1-carbonyl)-5-oxodecahydro-1H-cyclopropa[d]pyrrolo[1,2-a]azocin-6-yl)carbamoyl)benzo[b]thiophen-5-yl)methyl)phosphoryl)-L-alaninate]: 6.00 to 7.00; for `CCOC(=O)[C@H](C)NP(=O)(Oc1ccccc1)C(F)(F)c1ccc2sc(C(=O)N[C@H]3C[C@@H]4C[C@@H]4C[C@H]4CC[C@@H](C(=O)N5CC(C(=O)N6CCOCC6)C5)N4C3=O)cc2c1` (stereo partly drawn) [Compound 192, ethyl ((difluoro(2-(((3S,6S,7aS, 8aR,9aR)-3-(3-(morpholine-4-carbonyl)azetidine-1-carbonyl)-5-oxodecahydro-1H-cyclopropa[d]pyrrolo[1,2-a]azocin-6-yl)carbamoyl)benzo[b]thiophen-5-yl)methyl) (phenoxy)phosphoryl)-L-alaninate]: under 5.52; for `CC(C)OC(=O)COP(=O)(Oc1ccccc1)C(F)(F)c1ccc2sc(C(=O)N[C@H]3C[C@@H]4C[C@@H]4C[C@H]4CC[C@@H](C(=O)N5CC(C(=O)N6CCOCC6)C5)N4C3=O)cc2c1` (stereo partly drawn) [Compound 194, isopropyl 2-(((difluoro(2-(((3S,6S,7aS, 8aR,9aR)-3-(3-(morpholine-4-carbonyl)azetidine-1-carbonyl)-5-oxodecahydro-1H-cyclopropa[d]pyrrolo[1,2-a]azocin-6-yl)carbamoyl)benzo[b]thiophen-5-yl)methyl) (phenoxy)phosphoryl)oxy) acetate]: 6.00 to 7.00.
